Experimental data from patent publication US10626112B2, “Heterocyclic sulfonamide derivative and medicine comprising same” (EA PHARMA CO., LTD., priority 2014, dated 2020).
pIC50: −log10 of the molar value.

How the values were obtained:
[1] = target: T1, human TRPA1 (Homo sapiens (Human), UniProt O75762); experiment: Measurement of TRPA1 antagonist activity (2): as (1), different lot of human TRPA1 expression plasmid; type: cell-based; details: 293T cells transfected with human TRPA1, allylisothiocyanate 20 μM stimulation, calcium fluorescence, read-out: hTRPA1 IC50
How it was run: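 HEK293T cells transiently transfected with human TRPA1 plasmid (different lot), loaded with Calcium4 dye in HBSS/20 mM HEPES pH 7.2. Test compound preincubated 10 min, then allylisothiocyanate added at 20 μM final and fluorescence change read for 5 min. IC50 from sigmoid fit of inhibition relative to AITC-alone and buffer controls.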

[2] = target: T1, human TRPA1; experiment: Measurement of TRPA1 antagonist activity (1): intracellular calcium increase; type: cell-based; details: 293T cells transfected with human TRPA1 expression plasmid; allylisothiocyanate 20 μM stimulation; intracellular calcium fluorescence; read-out: hTRPA1 IC50
How it was run: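 HEK293T cells transiently transfected with full-length human TRPA1, loaded with Calcium4 dye in HBSS/20 mM HEPES pH 7.2. Test compound preincubated 10 min, then allylisothiocyanate added at 20 μM final and fluorescence change followed for 5 min. IC50 from sigmoid fit of percent inhibition relative to agonist and buffer controls.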

T1 sequence (O75762 whole entry): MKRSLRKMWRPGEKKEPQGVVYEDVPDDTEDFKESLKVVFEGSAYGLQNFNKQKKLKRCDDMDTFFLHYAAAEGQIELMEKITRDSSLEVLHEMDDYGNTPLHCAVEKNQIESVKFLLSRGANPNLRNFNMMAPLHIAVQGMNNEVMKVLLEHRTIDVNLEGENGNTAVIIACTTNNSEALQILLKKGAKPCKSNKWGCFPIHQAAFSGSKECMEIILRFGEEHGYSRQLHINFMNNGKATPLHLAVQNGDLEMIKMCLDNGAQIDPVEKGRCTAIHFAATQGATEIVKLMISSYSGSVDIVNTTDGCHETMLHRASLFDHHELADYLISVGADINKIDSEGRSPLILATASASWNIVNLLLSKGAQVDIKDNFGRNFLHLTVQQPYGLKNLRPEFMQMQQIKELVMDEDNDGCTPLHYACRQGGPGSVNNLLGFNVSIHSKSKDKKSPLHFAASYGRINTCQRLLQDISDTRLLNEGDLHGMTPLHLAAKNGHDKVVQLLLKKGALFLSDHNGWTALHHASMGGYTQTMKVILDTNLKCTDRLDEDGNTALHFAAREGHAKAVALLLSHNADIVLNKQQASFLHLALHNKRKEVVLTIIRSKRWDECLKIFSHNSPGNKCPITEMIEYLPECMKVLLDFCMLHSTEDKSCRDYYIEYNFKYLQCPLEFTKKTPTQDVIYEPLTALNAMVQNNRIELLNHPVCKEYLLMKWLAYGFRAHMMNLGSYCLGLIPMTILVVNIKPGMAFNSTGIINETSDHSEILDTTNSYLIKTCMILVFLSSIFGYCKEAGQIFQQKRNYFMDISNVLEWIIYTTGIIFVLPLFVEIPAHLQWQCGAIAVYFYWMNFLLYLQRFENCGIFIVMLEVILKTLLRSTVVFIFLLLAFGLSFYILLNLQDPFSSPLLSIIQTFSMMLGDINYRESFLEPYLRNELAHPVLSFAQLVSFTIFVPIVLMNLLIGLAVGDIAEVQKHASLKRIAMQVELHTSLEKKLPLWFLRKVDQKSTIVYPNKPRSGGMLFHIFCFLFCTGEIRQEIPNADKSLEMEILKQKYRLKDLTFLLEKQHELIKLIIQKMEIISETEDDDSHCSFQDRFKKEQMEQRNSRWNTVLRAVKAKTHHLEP

- pIC50 [1]: 7.46
- pIC50 [2]: 7.92
Compound: C[C@H](NS(=O)(=O)c1cc2cc(F)ccc2o1)C(=O)NCc1cc(-c2ccc(C(F)(F)F)nc2)ncn1 [Example 191, (2S)-2-[(5-fluorobenzofuran-2-yl)sulfonylamino]-N-[[6-[6-(trifluoromethyl)-3-pyridyl]pyrimidin-4-yl]methyl]propanamide]
